Results as given in ChEMBL document CHEMBL5579800, “Further structural optimization and SAR study of sungsanpin derivatives as cell-invasion inhibitors” (Bioorg Med Chem Lett, 2024).
Calls of active or inactive are those of the source. The calls are words filed in the database; no cut-off is given here. Where a SMILES comes first, the peptide text is derived from it.

Experiments:
A549 [1] = experiment: Upregulation of TIMP-2 mRNA level in human A549 cells at 100 uM by qPCR analysis; format: functional, cell-based
A549 [2] = experiment: Upregulation of TIMP-1 level in human A549 cells at 100 uM by Western blot analysis; format: functional, cell-based
A549 [3] = experiment: Inhibition of cell invasion in human A549 cells; format: functional, cell-based; details: dose 25-100 µM
A549 [4] = experiment: Upregulation of TIMP-2 level in human A549 cells at 100 uM by Western blot analysis; format: functional, cell-based
A549 [5] = experiment: Cytotoxicity against human A549 cells assessed as cell viability upto 100 uM by CCK8 assay; format: toxicity, cell-based; details: a549, 100 µM
A549 [6] = experiment: Inhibition of cell invasion in human A549 cells by microscopy; format: functional, cell-based; details: dose 25-100 µM
[7] = Stability in human serum assessed as compound remaining measured after 24 hrs by HPLC analysis; format: ADME, cell-free; details: read-out: Stability
A549 [8] = experiment: Upregulation of TIMP-1 mRNA level in human A549 cells at 100 uM by qPCR analysis; format: functional, cell-based
[9] = Stability in human serum assessed as half life by HPLC analysis; format: ADME, cell-free
A549 [10] = experiment: Inhibition of cell invasion in human A549 cells at 100 uM; format: functional, cell-based
A549 [11] = experiment: Inhibition of cell invasion in human A549 cells at 100 uM by microscopy; format: functional, cell-based
A549 [12] = experiment: Downregulation of MMP-9 level in human A549 cells at 100 uM by Western blot analysis; format: functional, cell-based
A549 [13] = experiment: Downregulation of MMP-2 level in human A549 cells at 100 uM by Western blot analysis; format: functional, cell-based
A549 [14] = experiment: Inhibition of cell invasion in human A549 cells at 25 to 100 uM; format: functional, cell-based; details: dose 25-100 µM

In the case of `CC(C)C[C@@H]1NC(=O)[C@H](C)NC(=O)[C@H](Cc2ccccc2)NC(=O)[C@H](CO)NC(=O)[C@H](CC(=O)O)NC(=O)[C@H](CC(C)C)NC(=O)[C@H](Cc2c[nH]c3ccccc23)NC(=O)[C@H](CO)NC1=O` (cyclo(ALSWLDSF)), the Activity (A549 [1]) is reported as “Active”, the Activity (A549 [2]) is reported as “Active” and the inhibition (A549 [3]) is reported as “Dose-Dependent Effect”. The Activity (A549 [4]) was “inactive”, the Activity (A549 [5]) was “Non-Toxic” and the inhibition (A549 [6]) was “Dose-Dependent Effect”. For the same molecule, the remaining at 24 h [7] was > 80%, the Activity (A549 [8]) was “Active” and the half-life [9] was > 24 h.
For `CC(C)C[C@@H]1NC(=O)CNC(=O)[C@H](Cc2ccccc2)NC(=O)[C@H](CO)NC(=O)[C@H](CC(=O)O)NC(=O)[C@H](CC(C)C)NC(=O)[C@H](Cc2c[nH]c3ccccc23)NC(=O)[C@H](CO)NC1=O` (cyclo(DSFGLSWL)), the Activity (A549 [5]) was “Non-Toxic”.
In the case of `CC(C)C[C@@H]1NC(=O)[C@H](CCCCN)NC(=O)[C@H](Cc2ccccc2)NC(=O)[C@H](CO)NC(=O)[C@H](CC(=O)O)NC(=O)[C@H](CC(C)C)NC(=O)[C@H](Cc2c[nH]c3ccccc23)NC(=O)[C@H](CO)NC1=O` (cyclo(DSFKLSWL)), the Activity (A549 [5]) is reported as “Non-Toxic”.
For Ac-DSFGLSWL-NH2, the inhibition (A549 [10]) was “inactive” and the Activity (A549 [5]) was “Non-Toxic”.
In the case of H-ASFGLSWL-OH, the inhibition (A549 [10]) is reported as “inactive” and the Activity (A549 [5]) is reported as “Non-Toxic”.
In the case of H-DAFGLSWL-OH, the inhibition (A549 [10]) is reported as “inactive” and the Activity (A549 [5]) is reported as “Non-Toxic”.
In the case of H-DSAGLSWL-OH, the Activity (A549 [5]) is reported as “Non-Toxic”.
For H-DSFALSWL-OH, the Activity (A549 [1]) was “Active”, the Activity (A549 [2]) was “Active” and the inhibition (A549 [3]) was “Dose-Dependent Effect”. The Activity (A549 [4]) was “inactive”, the inhibition (A549 [11]) was “Active” and the inhibition (A549 [10]) was “Active”. For the same molecule, the Activity (A549 [12]) was “Active”, the Activity (A549 [5]) was “Non-Toxic” and the remaining at 24 h [7] was ~23%. For the same molecule, the Activity (A549 [8]) was “Active”.
With H-DSFDLSWL-OH the Activity (A549 [5]) was “Non-Toxic”.
In the case of H-DSFGASWL-OH, the inhibition (A549 [10]) is reported as “inactive” and the Activity (A549 [5]) is reported as “Non-Toxic”.
For H-DSFGLAWL-OH, the Activity (A549 [5]) was “Non-Toxic”.
In the case of H-DSFGLSAL-OH, the inhibition (A549 [10]) is reported as “inactive” and the Activity (A549 [5]) is reported as “Non-Toxic”.
With H-DSFGLSWA-OH the inhibition (A549 [10]) was “inactive” and the Activity (A549 [5]) was “Non-Toxic”.
For H-DSFGLSWL-OH, the Activity (A549 [5]) was “Non-Toxic”.
With H-DSFKLSWL-OH the Activity (A549 [1]) was “inactive”, the Activity (A549 [2]) was “Active” and the inhibition (A549 [3]) was “Dose-Dependent Effect”. For the same molecule, the Activity (A549 [4]) was “inactive”, the Activity (A549 [13]) was “Active” and the Activity (A549 [5]) was “Non-Toxic”. The Activity (A549 [8]) was “Active”.
For H-DSFLLSWL-OH, the Activity (A549 [5]) was “Non-Toxic” and the inhibition (A549 [14]) was “inactive”.
For H-DSFRLSWL-OH, the Activity (A549 [5]) was “Non-Toxic”.
For H-DSFVLSWL-OH, the Activity (A549 [1]) was “inactive”, the Activity (A549 [2]) was “Active” and the Activity (A549 [4]) was “inactive”. The Activity (A549 [13]) was “Active”, the Activity (A549 [5]) was “Non-Toxic” and the inhibition (A549 [14]) was “Active”. The Activity (A549 [8]) was “Active”.
